Reference: patent publication US20230263822A1, “MODULATION OF FACTOR 11 EXPRESSION” (Ionis Pharmaceuticals, Inc., priority 2008, published 2023)
Like-named read-outs stand apart in the source and are kept apart here. Strand notation (5' to 3'): a small letter for the sugar, then the base; units joined by * are phosphorothioate-linked, units joined directly phosphodiester-linked; [ ] holds rarer units or linkages, { } end groups; capitals alone tell only the bases. e = 2'-O-(2-methoxyethyl) (MOE); [5mC] = 5-methylcytosine; d = 2'-deoxy (DNA)

Key:
[1] = test system: murine Factor 11 mRNA; assay: In vivo antisense inhibition of murine Factor 11 mRNA in liver (Example 10); conditions: BALB/c mice, relative to PBS control
Procedure: BALB/c mice were injected with 5 mg/kg, 10 mg/kg, 25 mg/kg, or 50 mg/kg of ISIS 404057 or ISIS 404071 twice a week for 3 weeks. A control group of mice was injected with phosphate buffered saline (PBS) twice a week for 3 weeks. Mice were sacrificed 5 days after receiving the last dose. Whole liver was harvested for RNA analysis and plasma was collected for clotting analysis (PT and aPTT) and protein analysis.
RNA was extracted from liver tissue for real-time PCR analysis of Factor 11. […] Results are presented as percent inhibition of Factor 11, relative to control.

[2] = mouse, in vivo, sc, 50 mg/kg
[3] = mouse, in vivo, sc, 50 mg/kg; remark: listed apart in the source
[4] = mouse, in vivo, sc, 50 mg/kg; remark: listed apart in the source
[5] = rat, in vivo, sc, 50 mg/kg
[6] = rat, in vivo, sc, 50 mg/kg; remark: listed apart in the source
[7] = rat, in vivo, sc, 50 mg/kg; remark: listed apart in the source
[8] = test system: mouse Factor 11 mRNA; assay: Cross-reactive antisense inhibition of murine Factor 11 in primary mouse hepatocytes, 100 nM (Example 9); format: cell-based; conditions: ~24 hours
Procedure: Antisense oligonucleotides targeted to a murine factor 11 nucleic acid were tested for their effects on Factor 11 mRNA in vitro. Cultured primary mouse hepatocytes at a density of 10,000 cells per well were treated with 100 nM antisense oligonucleotide. After a treatment period of approximately 24 hours, RNA was isolated from the cells and mouse Factor 11 mRNA levels were measured by quantitative real-time PCR. Factor 11 mRNA levels were adjusted according to total RNA content, as measured by RIBOGREEN. Results are presented as percent inhibition of Factor 11, relative to untreated control cells.
The chimeric antisense oligonucleotides in Tables 16 were designed as 5-10-5 MOE gapmers. The gapmers are 20 nucleotides in length, wherein the central gap segment is comprised of 10 2′-deoxynucleotides and is flanked on both sides (in the 5′ and 3′ directions) by wings comprising 5 nucleotides each. Each nucleotide in the 5′ wing segment and each nucleotide in the 3′ wing segment has a 2′-MOE modification. The internucleoside linkages throughout each gapmer are phosphorothioate (P=S) linkages. All cytidine residues throughout each gapmer are 5-methylcytidines. “Mouse target start site” indicates the 5′-most nucleotide to which the gapmer is targeted. “Mouse target stop site” indicates the 3′-most nucleotide to which the gapmer is targeted. All the mouse oligonucleotides listed show cross-reactivity between the mouse Factor 11 mRNA (GENBANK Accession No. NM_028066.1), incorporated herein as SEQ ID NO: 6 and the human Factor 11 mRNA (GENBANK Accession No. NM_000128.3), incorporated herein as SEQ ID NO: 1. “Human Target Start Site” indicates the 5′-most nucleotide in the human mRNA (GENBANK Accession No. NM_000128.3) to which the antisense oligonucleotide is targeted. “Human Target Stop Site” indicates the 3′-most nucleotide in the human mRNA (GENBANK Accession No. NM_000128.3) to which the antisense oligonucleotide is targeted. “Number of mismatches” indicates the mismatches between the mouse oligonucleotide and the human mRNA sequence.

[9] = 5 mg/kg twice a week for 3 weeks
[10] = 10 mg/kg twice a week for 3 weeks
[11] = 25 mg/kg twice a week for 3 weeks
[12] = 50 mg/kg twice a week for 3 weeks

## 404071 (antisense eT*eG*eG*eT*eA*dA*dT*d[5mC]*d[5mC]*dA*d[5mC]*dT*dT*dT*d[5mC]*eA*eG*eA*eG*eG) [compound 404071]
[1]; [9]
  % inhibition of murine Factor 11 mRNA: 72%
[1]; [10]
  % inhibition of murine Factor 11 mRNA: 82%
[1]; [11]
  % inhibition of murine Factor 11 mRNA: 93%
[1]; [12]
  % inhibition of murine Factor 11 mRNA: 96%

## ISIS 445513: 5-8-5 or 6-8-6 MOE microwalk gapmer (Table 44) (antisense GCAGCGGACGGCATTGGTGC; sugars from the 5' end e6 d8 e6, backbone and methylation of C not given here)
[2]
  ALT: 37 IU/L
  AST: 84 IU/L
  Albumin: 3.1
  Bilirubin: 0.22 mg/dL
[3]
  BUN: 27 mg/dL
[4]
  Lymphocyte: 5523
  Neutrophil: 959
  Platelets: 942
[5]
  ALT: 214 IU/L
  AST: 91 IU/L
  Albumin: 3.5
  Bilirubin: 0.15 mg/dL
[6]
  BUN: 24 mg/dL
  Creatinine: 0.4 mg/dL
  Urine protein/creatinine ratio: 4.6
[7]
  HCT: 44%
  Lymphocyte: 82%
  Neutrophil: 14%
  Platelets: 1051 nL⁻¹
  RBC: 7.8 pL⁻¹
  WBC: 17 nL⁻¹
  hemoglobin: 13.0 g/dL
  monocytes: 3.5%

## ISIS 445504: 5-8-5 or 6-8-6 MOE microwalk gapmer (Table 44) (antisense GGCATTGGTGCACAGTTTCT; sugars from the 5' end e6 d8 e6, backbone and methylation of C not given here)
[2]
  ALT: 71 IU/L
  AST: 107 IU/L
  Albumin: 3.4
  Bilirubin: 0.17 mg/dL
[3]
  BUN: 29 mg/dL
[4]
  HCT: 49%
  Lymphocyte: 3578
  Neutrophil: 959
  Platelets: 826
  RBC: 9.6
  WBC: 5
  hemoglobin: 14.7 g/dL
[5]
  ALT: 206 IU/L
  AST: 86 IU/L
  Albumin: 3.5
  Bilirubin: 0.11 mg/dL
[6]
  BUN: 26 mg/dL
  Creatinine: 0.4 mg/dL
  Urine protein/creatinine ratio: 4.3
[7]
  HCT: 50%
  Lymphocyte: 87%
  Neutrophil: 10%
  Platelets: 776 nL⁻¹
  RBC: 8.9 pL⁻¹
  WBC: 16 nL⁻¹
  hemoglobin: 14.7 g/dL
  monocytes: 2.0%

## ISIS 445505: 5-8-5 or 6-8-6 MOE microwalk gapmer (Table 44) (antisense CGGCATTGGTGCACAGTTTC; sugars from the 5' end e6 d8 e6, backbone and methylation of C not given here)
[2]
  ALT: 116 IU/L
  AST: 153 IU/L
  Albumin: 3.2
  Bilirubin: 0.18 mg/dL
[3]
  BUN: 29 mg/dL
[4]
  HCT: 49%
  Lymphocyte: 3447
  Neutrophil: 818
  Platelets: 725
  RBC: 9.6
  WBC: 5
  hemoglobin: 14.6 g/dL
[5]
  ALT: 356 IU/L
  AST: 243 IU/L
  Albumin: 3.6
  Bilirubin: 0.15 mg/dL
[6]
  BUN: 24 mg/dL
  Creatinine: 0.4 mg/dL
  Urine protein/creatinine ratio: 3.8
[7]
  HCT: 50%
  Lymphocyte: 87%
  Neutrophil: 10%
  Platelets: 1089 nL⁻¹
  RBC: 9.1 pL⁻¹
  WBC: 21 nL⁻¹
  hemoglobin: 15.0 g/dL
  monocytes: 2.5%

## ISIS 445503: 5-8-5 or 6-8-6 MOE microwalk gapmer (Table 44) (antisense GCATTGGTGCACAGTTTCTG; sugars from the 5' end e6 d8 e6, backbone and methylation of C not given here)
[2]
  ALT: 1314 IU/L
  AST: 852 IU/L
  Albumin: 3.4
  Bilirubin: 0.28 mg/dL
[3]
  BUN: 29 mg/dL
[4]
  HCT: 46%
  Lymphocyte: 6436
  Neutrophil: 1475
  Platelets: 309
  RBC: 9.2
  WBC: 8
  hemoglobin: 13.6 g/dL

## ISIS 445532: 5-8-5 or 6-8-6 MOE microwalk gapmer (Table 44) (antisense CGGCATTGGTGCACAGTT; sugars from the 5' end e5 d8 e5, backbone and methylation of C not given here)
[2]
  ALT: 395 IU/L
  AST: 360 IU/L
  Albumin: 2.9
  Bilirubin: 0.20 mg/dL
[3]
  BUN: 23 mg/dL
[4]
  HCT: 48%
  Lymphocyte: 5490
  Neutrophil: 1116
  Platelets: 689
  RBC: 9.7
  WBC: 7
  hemoglobin: 14.8 g/dL

## 404057 (eT*e[5mC]*e[5mC]*eT*eG*dG*d[5mC]*dA*dT*dT*d[5mC]*dT*d[5mC]*dG*dA*eG*e[5mC]*eA*eT*eT) [compound 404057]
[1]; [9]
  % inhibition of murine Factor 11 mRNA: 40%
[1]; [10]
  % inhibition of murine Factor 11 mRNA: 64%
[1]; [11]
  % inhibition of murine Factor 11 mRNA: 85%
[1]; [12]
  % inhibition of murine Factor 11 mRNA: 95%

## 404087 (antisense eT*eT*e[5mC]*eT*eT*dG*dA*dA*d[5mC]*d[5mC]*d[5mC]*dT*dG*dA*dA*eG*eA*eA*eA*eG) [compound 404087]
[8]
  % Inhibition of mouse Factor 11 mRNA levels: 29%

## 404050 (eT*eG*e[5mC]*eT*eT*dG*dA*dA*dG*dG*dA*dA*dT*dA*dT*e[5mC]*e[5mC]*eA*eG*eA; antisense) [compound 404050]
[8]
  % Inhibition of mouse Factor 11 mRNA levels: 82%

## 404083 (antisense eT*eG*eT*eG*e[5mC]*dA*dG*dA*dG*dT*d[5mC]*dA*d[5mC]*d[5mC]*dT*eG*e[5mC]*e[5mC]*eA*eT) [compound 404083]
[8]
  % Inhibition of mouse Factor 11 mRNA levels: 47%

## 404089 (antisense eT*eG*eA*eA*eT*dT*dA*dT*d[5mC]*dA*dT*dT*dT*d[5mC]*dT*eT*eG*eA*eA*e[5mC]) [compound 404089]
[8]
  % Inhibition of mouse Factor 11 mRNA levels: 6%

## 404067 (antisense eG*eG*eG*eA*eA*dA*dA*dT*dG*dT*d[5mC]*d[5mC]*d[5mC]*dT*dG*eA*eT*eA*e[5mC]*eA) [compound 404067]
[8]
  % Inhibition of mouse Factor 11 mRNA levels: 39%

## 404090 (antisense eT*eG*eA*eT*e[5mC]*dA*dT*dG*dA*dA*dT*dT*dA*dT*d[5mC]*eA*eT*eT*eT*e[5mC]) [compound 404090]
[8]
  % Inhibition of mouse Factor 11 mRNA levels: 42%

## 404055 (eT*eG*eT*eT*eA*dT*dA*dG*dT*dT*d[5mC]*dA*dT*dG*d[5mC]*e[5mC]*e[5mC]*eT*eT*e[5mC]; antisense) [compound 404055]
[8]
  % Inhibition of mouse Factor 11 mRNA levels: 27%
